System: model rats suffering from walking disability due to compression of cauda equina
Assay: walking disability model due to compression of cauda equina (treadmill walking distance)
Type: in vivo, Wistar strain rats
Conditions: rat, oral twice daily, suspension 0.2 mg/mL in 0.5 w/v % methyl cellulose, until 13th or 20th day after operation; vs control group p<0.01
Procedure: Wistar strain rats (male; seven weeks age) (Charles Liver Japan) were subjected to a walk training once daily for continuous three or four days using a treadmill (manufactured by Muromachi Kikai). On the last day of the walk training, the animals were grouped and, on the next day, the walking time was measured and then a sham operation or an operation for compressing the cauda equina mentioned below i) was carried out. On the third, seventh, fourteenth and twenty-first days after the operation, walking time was measured. Based on the walking time measured, a walking distance was calculated.
After measuring the walking time on the third day, the group for which the operation for compressing the cauda equina was carried out was further grouped into a control group and a drug-administered group on the basis of their walking distances on the day when the operation was done and on the third day after the operation. […]
The treadmill was operated and walking time of each rat was measured using a timer. […]
As to the evaluation, the control group was evaluated by a Welch test against the sham operation group (##: p<0.01). The drug-administered group was evaluated by a t-test or a Welch test against the control group (★★: p<0.01).

## CC(C)N(CCCCOCC(=O)NS(C)(=O)=O)c1cnc(-c2ccccc2)c(-c2ccccc2)n1 [compound A, 2-{4-[N-(5,6-diphenylpyrazin-2-yl)-N-isopropylamino]butyloxy}-N-(methylsulfonyl)acetamide]
  disability in walking due to compression of cauda equina (walking distance): significantly improved
